Test results taken from US4081533A, “Method of reducing mammalian fertility and drugs therefor” (Regents of the University of California, priority 1976, dated 1978).
“Also recorded” adds a separate entry of the source. Structures can show the parent of a compound that is named as a salt. Where two headings read alike, the source gives them in different places. Positions of bridges follow the written chain, without caps; N, C: chain ends. Residues, ends and D or L forms follow the SMILES beside them.

Experiments:
ovulation = experiment: Ovulation in proestrus rats (ova flushed from oviducts and counted); assay type: in vivo, rat
Experimental: (§1) These subjects were administered various dosages of the peptides of the invention as well as control materials, i.e., saline solution alone, and the naturally occuring peptides, vasopressin and oxytocin, that are related to the cyclic nonapeptide, 8-arginine vasotocin. Both vasopressin and oxytocin are well documented in the literature. Vasopressin is very closely related to 8-arginine vastocin, and has the cyclic nonapeptide structure: [drawing 2] wherein the 3rd amino acid moiety is phenylalanine rather than isoleucine that occurs in the 8-arginine vasotocin. In all other respects the vasopressin peptide chain is identical to 8-arginine vasotocin. Vasopressin is found in the posterior lobe of the pituitary gland.
(§2) More specifically, in normal cycling female rats there is a dramatic surge in the level of luteinizing hormone (LH) in the blood on the afternoon of proestrus. This surge of LH can be detected by monitoring periodic blood samples. These samples are secured by inserting a cannula into the right atrium of the heart. 50 microliters of blood are withdrawn each hour for some 6 to 7 samples. The levels of LH therein is determined using radioimmunossay techniques. Under normal circumstances, ovulation occurs about 12 hours later. The oviducts are then removed and the ova are recovered therefrom by inserting a hypodermic into the tubal ostium and flushing with phosphate-buffered saline. Freed ova are collected in a micropipette and counted. In the tests, the normal cycling rats were administered both control saline, and various dosages of 8-arginine vasotocin, prolyl-arginyl-glycinamide, prolyl-lysyl-glycinamide, vasopressin and oxytocin.
(§3) In every instance, the peptide dosage was administered in saline via heart cannula at one hour intervals over a 4 hour period.

preovulatory surge of LH = experiment: Pre-ovulatory LH surge in proestrus rats (hourly blood samples, radioimmunoassay); assay type: in vivo, rat; conditions: for LH surge and ovulation inhibitory effect (in words): administered prior to ovulation, rats
Experimental: as §1, §2, §3

[1] = tested on: Pre-Ovulatory Surge of Prolactin; experiment: Pre-ovulatory surge of prolactin in rats; assay type: in vivo, rat; conditions: for Inhibitory effect on prolactin surge (in words): summary of Table II
Experimental: 8-arginine vasotocin, vasopressin, and oxytocin were administered at various dosage levels and rates to a number of rats. Saline solution was utilized as a control.

[2] = rat, in vivo
Description: The level of nonapeptide or tripeptide in the body fluids necessary to inhibit the LH surge and subsequent ovulation will vary from species to species and from individual to individual. In this regard, however, the nonapeptide does appear to have at least 50-100 times the activity, on a weight basis, of the tripeptide. Therefore, effective dosage levels of the tripeptides are necessarily higher than the nonapeptides, by as much as two or three orders of magnitude. On the other hand, the tripeptide, being a much simpler molecular, is more easily metabolized, and the higher dosage requirements are easily tolerated and produce no side effects. […] A technique similar to that disclosed herein for the synthesis of the tripeptide may be utilized; although it will be recognized that the production of a nine membered peptide will be considerably more costly and time consuming that the production of the tripeptide. But such synthesis techniques are available to secure the 8-arginine vasotocin utilized in the present invention.

[3] = reason given for unsuitability in the method; cited from earlier work
[4] = dihydrochloride form, dosage 1 μg, same conditions as Table I
[5] = dosage 1μg/120 min, total dose 2 μg
[6] = dosage 1μ/30 min, total dose 7 μg
[7] = proestrus rats, dosage 1.0 μg in saline via heart cannula at one hour intervals over a 4 hour period, acetate salt
[8] = proestrus rats, dosage 5.0 μg in saline via heart cannula at one hour intervals over a 4 hour period, acetate salt
[9] = proestrus rats, dosage 0.1 μg in saline via heart cannula at one hour intervals over a 4 hour period, acetate salt
[10] = proestrus rats, dosage 0.6 mg in saline via heart cannula at one hour intervals over a 4 hour period, acetate salt

SMILES: CC[C@H](C)[C@@H]1NC(=O)[C@H](Cc2ccc(O)cc2)NC(=O)[C@@H](N)CSSC[C@@H](C(=O)N2CCC[C@H]2C(=O)N[C@@H](CCCNC(=N)N)C(=O)NCC(N)=O)NC(=O)[C@H](CC(N)=O)NC(=O)[C@H](CCC(N)=O)NC1=O [8-arginine vasotocin-dihydrochloride] (H-CYIQNCPRG-NH2; disulfide 1-6)
- Presence of Ova (%) (ovulation; [4]): 20%
- Presence of LH Surges (%) (preovulatory surge of LH; [4]): 0%

SMILES: CC[C@H](C)[C@@H]1NC(=O)[C@H](Cc2ccc(O)cc2)NC(=O)[C@@H](N)CSSC[C@@H](C(=O)N2CCC[C@H]2C(=O)N[C@@H](CC(C)C)C(=O)NCC(N)=O)NC(=O)[C@H](CC(N)=O)NC(=O)[C@H](CCC(N)=O)NC1=O [Oxytocin, reference compound]
- Presence of Prolactin Surge (%) [1, 5]: 84%
- Presence of Prolactin Surge (%) [1, 6]: 60%
- Inhibitory effect on prolactin surge (in words) [1]: the lowest effect
- Presence of Ova (%) (ovulation; [7]): 100%
- Presence of Ova (%) (ovulation; [8]): 94%
- LH surge and ovulation inhibitory effect (in words) (preovulatory surge of LH): essentially inactive
- Presence of LH Surges (%) (preovulatory surge of LH; [7]): 100%
- Presence of LH Surges (%) (preovulatory surge of LH; [8]): 94%

SMILES: CC[C@H](C)[C@@H]1NC(=O)[C@H](Cc2ccc(O)cc2)NC(=O)[C@@H](N)CSSC[C@@H](C(=O)N2CCC[C@H]2C(=O)N[C@@H](CCCNC(=N)N)C(=O)NCC(N)=O)NC(=O)[C@H](CC(N)=O)NC(=O)[C@H](CCC(N)=O)NC1=O [8-arginine-Vasotocin, 8-arginine vasotocin] (H-CYIQNCPRG-NH2; disulfide 1-6)
- Presence of Prolactin Surge (%) [1, 5]: 0%
- Presence of Prolactin Surge (%) ([1]; dosage 1μg/240 min, total dose 5 μg): 80%
- Presence of Prolactin Surge (%) [1, 6]: 4%
- Presence of Prolactin Surge (%) ([1]; dosage 1μ/60 min, total dose 4 μg): 14%
- Inhibitory effect on prolactin surge (in words) [1]: high inhibitory effect
- Presence of Ova (%) (ovulation; [9]): 45%
- Presence of Ova (%) (ovulation; [7]): 22%
- LH surge and ovulation inhibitory effect (in words) (preovulatory surge of LH): effectively blocked
- Effect on basal levels of luteinizing hormone in the blood (preovulatory surge of LH; basal LH, not the surge): does not appear to suppress the basal levels
- Activity of the nonapeptide relative to the tripeptide (preovulatory surge of LH; on a weight basis): 50-100 times
- Presence of LH Surges (%) (preovulatory surge of LH; [9]): 34%
- Presence of LH Surges (%) (preovulatory surge of LH; [7]): 5%

SMILES: N=C(N)NCCC[C@H](NC(=O)[C@@H]1CCCN1)C(=O)NCC(N)=O [Prolyl-arginyl-glycinamide, prolyl-arginyl-glycinamide] (H-Pro-Arg-Gly-NH2)
- Side effects [2]: no noticable side effects
- Presence of Ova (%) (ovulation; [10]): 42%
- LH surge and ovulation inhibitory effect (in words) (preovulatory surge of LH): exhibits a similar luteinizing hormone suppressing effect that also inhibits ovulation; also recorded: high inhibition of the LH surge and ovulation
- Presence of LH Surges (%) (preovulatory surge of LH; [10]): 25%

SMILES: NC(=O)CC[C@@H]1NC(=O)[C@H](Cc2ccccc2)NC(=O)[C@H](Cc2ccc(O)cc2)NC(=O)[C@@H](N)CSSC[C@@H](C(=O)N2CCC[C@H]2C(=O)N[C@@H](CCCN=C(N)N)C(=O)NCC(N)=O)NC(=O)[C@H](CC(N)=O)NC1=O [Vasopressin, reference compound]
- Side effects [3]: severe vasocontrictive side effects
- Presence of Prolactin Surge (%) [1, 5]: 57%
- Presence of Prolactin Surge (%) [1, 6]: 17%
- Inhibitory effect on prolactin surge (in words) [1]: a lesser effect
- Presence of Ova (%) (ovulation; [9]): 94%
- Presence of Ova (%) (ovulation; [7]): 62%
- LH surge and ovulation inhibitory effect (in words) (preovulatory surge of LH): considerable activity
- Presence of LH Surges (%) (preovulatory surge of LH; [9]): 94%
- Presence of LH Surges (%) (preovulatory surge of LH; [7]): 37%

SMILES: NCCCC[C@H](NC(=O)[C@@H]1CCCN1)C(=O)NCC(N)=O [Prolyl-lysyl-glycinamide, prolyl-lysyl-glycinamide] (H-Pro-Lys-Gly-NH2)
- Presence of Ova (%) (ovulation; [10]): 30%
- LH surge and ovulation inhibitory effect (in words) (preovulatory surge of LH; listed as Prolyl-Lysyl-Glycinamide): exhibits luteinizing hormone suppressing and anovulatory properties
- LH surge and ovulation inhibitory effect (in words) (preovulatory surge of LH; listed as prolyl-lysyl-glycinamide): high inhibition of the LH surge and ovulation
- Presence of LH Surges (%) (preovulatory surge of LH; [10]): 15%
